The target in one assay is MEK1 kinase (Homo sapiens (Human), UniProt Q02750). The assay can be described thus: MEK1 kinase enzymatic activity assay (Kinase Glo plus luminescence). The conditions noted are these: 60 minutes at 22 degree. Type of assay: biochemical. How it is done:
The Kinase Glo plus assay kit was purchased from Promega. The substrate, APT, DTT, and dimethylsulfoxide were purchased from Sigma-Aldrich.
The MAP2K1 (MEK1) kinase, Europium labeled Antibody, Tracer 236 and binding buffer A were purchased from Invitrogen.
Determination of Enzymatic Activity:
Compounds were diluted from DMSO stocks into 1× buffer (20 mM MOPS, PH 7.4, 5 mM MgCl2, 0.5 mM MnCl2, 100 uM Sodium Orthovanadate, 0.01% Triton X-100, 1 mM DTT). A typical reaction assay contained 0.01 nanomoles MEK1 kinase, 0.01 nanomoles ATP, 10 nanograms substrate. The screening assay essentially comprised four additions. 2 ul of diluted compounds were dispensed to 384 well white assay plates. 6 ul of kinase-substrate cocktail was then added to each well. 2 ul 5×ATP was subsequently added to each well to start the reaction. A top seal was applied and the plate was incubated at 22 degree avoiding light for 60 minutes. Finally, 10 ul of the Kinase Glo plus reagent was added to each well to stop the reaction. Incubated at room temperature and avoid light for ten minutes. The top seal was removed and the plate was counted by the EnVision 2104 multi labeled plate reader (PerkinElmer) with a standard luminescent program.
(Kinase-Glo reads ATP consumption through a luciferase reaction.)

Assay [1] concerns phosphorylated ERK in Human A375 melanoma cancer cells. The assay can be described thus: AlphaScreen assay for phosphorylated ERK in A375 cells. As to conditions: A-375, 1 h, compound treatment 60 minutes at 37 degree, phospho-ERK, read-out: IC50 (nM) Cell based. How it is done:
The SureFire Phospho-ERK1/2 Assay kit and the AlphaScreen General IgG (Protein A) Detection kit were both purchased from PerkinElmer.
Generation of Cell Based IC50 Data • Effects of compounds in the cell were determined by the AlphaScreen assay for phosphorylated ERK. Human A375 melanoma cancer cells were plated in a 96 wells plate at 80,000 cells per well and grown in a 37 degree humidified CO2 incubator. The following day, cells were treated with a range of compound concentrations for 60 minutes at 37 degree. The cells were then lysed and 4 ul of each lysate were transferred into the 384 well white reaction plate. A cocktail of AlphaScreen beads and buffer was freshly prepared and this mixture was dispensed into each well in a room with low light. A top seal was applied and the plate was incubated at 25 degree avoiding light for two hours. The top seal was removed when the plate was counted by the EnVision multi labeled plate reader (PerkinElmer) with an optimized AlphaScreen program. […] Biological Data for Select Compounds

Structures are written as SMILES.

Chain of MEK1 kinase (Q02750 whole entry): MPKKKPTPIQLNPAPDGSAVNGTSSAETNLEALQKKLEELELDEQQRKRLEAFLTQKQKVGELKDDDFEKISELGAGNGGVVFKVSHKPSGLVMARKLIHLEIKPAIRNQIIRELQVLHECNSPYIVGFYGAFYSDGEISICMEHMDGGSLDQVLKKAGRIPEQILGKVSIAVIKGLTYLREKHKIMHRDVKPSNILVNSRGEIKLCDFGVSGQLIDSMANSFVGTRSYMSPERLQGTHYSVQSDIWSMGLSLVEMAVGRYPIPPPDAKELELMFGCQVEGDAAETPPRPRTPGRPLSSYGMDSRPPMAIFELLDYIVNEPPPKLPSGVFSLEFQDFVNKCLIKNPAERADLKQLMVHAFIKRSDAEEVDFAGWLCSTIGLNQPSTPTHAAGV

A word on the IC50: it is the point on the concentration scale where inhibition reaches its midpoint. Consider `Cn1c(Nc2ccc(I)cc2F)c(C(=O)NOCCO)c2occc2c1=O`, for which the IC50 (at MEK1 kinase; in assay [1]) was under 100 nM in each case.
As to `Cc1cc2c(=O)n(C)c(Nc3ccc(I)cc3F)c(C(=O)NOCCO)c2o1`, the concentration for half-maximal inhibition (IC50) was under 500 nM on MEK1 kinase and under 100 nM in assay [1].
Taken in the same sequence, the figures for `Cn1c(Nc2ccc(Br)cc2F)c(C(=O)NOCCO)c2occc2c1=O` were under 10000 nM and under 100 nM.
As for `C[C@H](O)CONC(=O)c1c(Nc2ccc(I)cc2F)n(C)c(=O)c2ccoc12`, the IC50 (at MEK1 kinase; in assay [1]) was under 100 nM throughout.
For `C[C@@H](CO)ONC(=O)c1c(Nc2ccc(I)cc2F)n(C)c(=O)c2ccoc12`, the IC50 (on MEK1 kinase; in assay [1]) was under 100 nM each time.
`COCCONC(=O)c1c(Nc2ccc(I)cc2F)n(C)c(=O)c2ccoc12`: the IC50 was under 500 nM at MEK1 kinase and under 100 nM in assay [1].
With `Cn1c(Nc2ccc(I)cc2F)c(C(=O)NOCC2CC2)c2occc2c1=O`, the IC50 (at MEK1 kinase; in assay [1]) was under 100 nM in each case.
Regarding `Cn1c(Nc2ccc(I)cc2F)c(C(=O)NOC(C)(C)CO)c2occc2c1=O`, the IC50 (on MEK1 kinase; in assay [1]) was under 100 nM throughout.
`Cn1c(Nc2ccc(I)cc2F)c(C(=O)NOC[C@H](O)CO)c2occc2c1=O`: the IC50 (on MEK1 kinase; in assay [1]) was under 100 nM in each case.
Regarding `CC[C@H](O)CONC(=O)c1c(Nc2ccc(I)cc2F)n(C)c(=O)c2ccoc12`, the IC50 (on MEK1 kinase; in assay [1]) was under 100 nM throughout.
Turning to `Cn1c(Nc2ccc(Cl)cc2Cl)c(C(=O)NOCCO)c2occc2c1=O`, the values for the IC50 (at MEK1 kinase; in assay [1]) were under 10000 nM and under 1000 nM, respectively.
Regarding `Cn1c(Nc2ccc(Br)cc2Cl)c(C(=O)NOCCO)c2occc2c1=O`, the figures for the IC50 (on MEK1 kinase; in assay [1]) were under 1000 nM and under 100 nM, respectively.
The corresponding values for `CONC(=O)c1c(Nc2ccc(I)cc2F)n(C)c(=O)c2ccoc12` are under 500 nM and under 100 nM.
Turning to `CCONC(=O)c1c(Nc2ccc(I)cc2F)n(C)c(=O)c2ccoc12`, the IC50 on MEK1 kinase was under 500 nM; in assay [1], under 100 nM.
Taken in the same sequence, the figures for `Cn1c(Nc2ccc(I)cc2F)c(C(N)=O)c2occc2c1=O` were under 1000 nM and under 100 nM.
Taken in the same sequence, the figures for `Cn1c(Nc2ccc(I)cc2F)c(C(=O)NCC(O)CO)c2occc2c1=O` (stereo not shown) were under 1000 nM and under 100 nM.
`Cn1c(Nc2ccc(I)cc2Cl)c(C(=O)NOCCO)c2occc2c1=O`: the IC50 (at MEK1 kinase; in assay [1]) was under 100 nM each time.
Turning to `Cn1c(Nc2ccc(I)cc2F)c(C(=O)NCCCO)c2occc2c1=O`, the IC50 is under 10000 nM on MEK1 kinase and under 100 nM in assay [1].
Regarding `Cn1c(Nc2ccc(I)cc2F)c(C(=O)NOCCO)c2sccc2c1=O`, the IC50 was under 500 nM on MEK1 kinase and under 100 nM in assay [1].
For `CSc1ccc(Nc2c(C(=O)NOCCO)c3occc3c(=O)n2C)c(F)c1`, the IC50 was under 500 nM at MEK1 kinase and under 100 nM in assay [1].
The corresponding values for `CSc1ccc(Nc2c(C(=O)NOCCO)c3occc3c(=O)n2C)c(Cl)c1` are under 1000 nM and under 100 nM.
The corresponding values for `Cc1nc2c(=O)n(C)c(Nc3ccc(I)cc3F)c(C(=O)NOCCO)c2o1` are under 1000 nM and under 100 nM.
Consider `Cc1noc2c(C(=O)NOCCO)c(Nc3ccc(I)cc3F)n(C)c(=O)c12`, for which the IC50 at MEK1 kinase was under 10000 nM; in assay [1], under 100 nM.
With `Cc1coc2c(C(=O)NOCCO)c(Nc3ccc(I)cc3F)n(C)c(=O)c12`, the IC50 on MEK1 kinase was under 500 nM; in assay [1] it was under 100 nM.
Turning to `Cn1c(Nc2ccc(I)cc2F)c(C(=O)NOCCO)c2scnc2c1=O`, the IC50 (at MEK1 kinase; in assay [1]) was under 10000 nM throughout.
For the compound `Cc1cc2c(=O)n(C)c(Nc3ccc(I)cc3F)c(C(=O)NOC[C@H](O)CO)c2o1`, the IC50 is under 500 nM on MEK1 kinase and under 100 nM in assay [1].
Consider `CN(C)Cc1cc2c(=O)n(C)c(Nc3ccc(I)cc3F)c(C(=O)NOCCO)c2o1`, for which the IC50 at MEK1 kinase was under 500 nM; in assay [1], under 100 nM.
Taken in the same sequence, the figures for `Cn1c(Nc2ccc(I)cc2F)c(C(=O)NOCCO)c2oc(CN3CCOCC3)cc2c1=O` were under 500 nM and under 100 nM.
Taken in the same sequence, the figures for `Cn1c(Nc2ccc(I)cc2F)c(C(=O)NC(=O)CO)c2occc2c1=O` were under 10000 nM and under 500 nM.
Take `Cn1c(Nc2ccc(I)cc2F)c(C(=O)NOCCO)c2nc(N)sc2c1=O`: the IC50 is under 500 nM at MEK1 kinase and under 100 nM in assay [1].
On to `CNc1nc2c(C(=O)NOCCO)c(Nc3ccc(I)cc3F)n(C)c(=O)c2s1`, for which the IC50 was under 500 nM on MEK1 kinase and under 100 nM in assay [1].
As to `CSc1nc2c(C(=O)NOCCO)c(Nc3ccc(I)cc3F)n(C)c(=O)c2s1`, the results for the IC50 (on MEK1 kinase; in assay [1]) were under 500 nM and under 100 nM, respectively.
The corresponding values for `Cn1c(Nc2ccc(I)cc2F)c(C(=O)NOCCO)c2ncsc2c1=O` are under 1000 nM and under 100 nM.
The corresponding values for `Cn1c(Nc2ccc(I)cc2Cl)c(C(=O)NCCCO)c2occc2c1=O` are under 10000 nM and under 100 nM.
For the compound `Cc1coc2c(C(=O)NOCCO)c(Nc3ccc(I)cc3Cl)n(C)c(=O)c12`, the IC50 at MEK1 kinase was under 500 nM; in assay [1], under 100 nM.
The corresponding values for `Cc1nc2c(C(=O)NOCCO)c(Nc3ccc(I)cc3F)n(C)c(=O)c2s1` are under 500 nM and under 100 nM.
For `Cn1c(Nc2ccc(I)cc2F)c(C(=O)N2CC(O)(C3CCCCN3)C2)c2occc2c1=O` (stereo not shown), the results for the IC50 (at MEK1 kinase; in assay [1]) were under 1000 nM and under 100 nM, respectively.
For the compound `CSc1nc2c(C(=O)NOCCO)c(Nc3ccc(I)cc3Cl)n(C)c(=O)c2s1`, the IC50 (on MEK1 kinase; in assay [1]) was under 100 nM each time.

(Values after US9540396B2, “6-arylamino pyridone carboxamide as MEK inhibitors” (Centaurus Biopharma Co., Ltd., priority 2010, dated 2017).)
